Assay results reported in ChEMBL document CHEMBL5154734, “Novel potent benzimidazole-based microsomal prostaglandin E2 synthase-1 (mPGES-1) inhibitors derived from BRP-201 that also inhibit leukotriene C4 synthase” (Eur J Med Chem, 2022).
Active and inactive are the calls of the source. No cut-off for these calls is given here.

Tests used:
[1] = molecular target: T1, Prostaglandin E synthase (Homo sapiens, UniProt O14684); test: Inhibition of mPGES-1 activity in human A549 microsomal preparation using PGH2 as substrate preincubated for 15 mins followed by substrate addition for 1 min by RP-HPLC analysis; type: microsomes, Microsome
T1 sequence (O14684 whole entry): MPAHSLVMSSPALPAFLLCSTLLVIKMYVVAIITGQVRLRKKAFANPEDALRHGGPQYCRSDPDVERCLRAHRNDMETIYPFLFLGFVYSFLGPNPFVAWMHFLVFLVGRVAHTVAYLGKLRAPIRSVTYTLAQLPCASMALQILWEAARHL

[2] = molecular target: T2, Leukotriene C4 synthase (Homo sapiens, UniProt Q16873); test: Inhibition of human recombinant LTC4S expressed in HEK293 cell microsomal fraction preincubated for 10 mins followed by LTA4-methyl ester addition and measured after 10 mins by UPLC-MS/MS analysis; type: microsomes, Microsome
T2 sequence (Q16873 whole entry): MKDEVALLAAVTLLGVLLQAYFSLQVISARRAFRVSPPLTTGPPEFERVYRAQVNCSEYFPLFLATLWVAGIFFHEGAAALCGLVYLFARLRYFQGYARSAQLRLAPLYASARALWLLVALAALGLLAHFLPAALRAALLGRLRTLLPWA

[3] = molecular target: T3, Polyunsaturated fatty acid 5-lipoxygenase (Homo sapiens, UniProt P09917); test: Inhibition of human recombinant 5-LOX expressed in Escherichia coli BL21 assessed as inhibition of […] 5-LO product LTB4 formation preincubated for 15 mins followed by arachidonic acid addition and measured after 10 mins by RP-HPLC analysis
T3 sequence (P09917 whole entry): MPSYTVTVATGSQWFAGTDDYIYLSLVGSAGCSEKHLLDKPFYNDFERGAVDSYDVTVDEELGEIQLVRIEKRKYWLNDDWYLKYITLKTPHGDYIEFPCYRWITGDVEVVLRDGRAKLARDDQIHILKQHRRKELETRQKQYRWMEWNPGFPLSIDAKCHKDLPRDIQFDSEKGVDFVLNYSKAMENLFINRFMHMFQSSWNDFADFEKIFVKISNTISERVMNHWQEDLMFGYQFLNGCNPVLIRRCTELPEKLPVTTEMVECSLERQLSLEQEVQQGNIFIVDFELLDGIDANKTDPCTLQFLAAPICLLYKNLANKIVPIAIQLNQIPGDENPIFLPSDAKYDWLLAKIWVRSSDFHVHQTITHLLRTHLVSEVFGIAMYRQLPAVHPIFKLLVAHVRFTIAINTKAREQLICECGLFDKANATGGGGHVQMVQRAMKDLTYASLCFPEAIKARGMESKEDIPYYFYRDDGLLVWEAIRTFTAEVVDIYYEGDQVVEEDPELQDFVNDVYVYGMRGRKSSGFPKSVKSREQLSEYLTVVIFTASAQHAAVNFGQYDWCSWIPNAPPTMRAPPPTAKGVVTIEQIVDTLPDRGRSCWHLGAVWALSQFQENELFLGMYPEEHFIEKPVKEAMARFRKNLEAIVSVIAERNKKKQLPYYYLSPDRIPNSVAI

[4] = molecular target: T4, Polyunsaturated fatty acid 5-lipoxygenase (Homo sapiens) (UniProt P09917); test: Inhibition of 5-LOX in human neutrophils assessed as reduction in FLAP-dependent 5-LO product LTB4 formation at upto 10 uM preincubated for 10 mins followed by A23187 addition and measured after 10 mins by RP-HPLC and UV detection method; type: cell-based; settings: Neutrophil
T4 sequence (whole entry): T3 sequence (P09917 whole entry)

[5] = tested on: Neutrophil; test: Cytotoxicity against human neutrophils assessed as reduction in cell viability at 10 uM by LDH release assay; type: toxicity, cell-based
[6] = molecular target: T5, Prostaglandin E synthase (Homo sapiens) (UniProt O14684); test: Inhibition of mPGES-1 activity in IL-1beta human A549 microsomal preparation at 10 uM using PGH2 as substrate preincubated for 15 mins followed by substrate addition for 1 min by RP-HPLC analysis; type: microsomes; settings: Microsome, time 16.0 min
T5 sequence (whole entry): T1 sequence (O14684 whole entry)

[7] = molecular target: T2, Leukotriene C4 synthase; test: Inhibition of recombinant LTC4S (unknown origin) expressed in COS cells; type: cell-based

| SMILES | IC50 [1] | IC50 [2] | IC50 [3] | inhibition [4] | Activity [5] | also measured |
| --- | --- | --- | --- | --- | --- | --- |
| CC(c1ccc(Oc2ccccc2)cc1)c1nc2cc(-c3n[nH]c(=S)o3)ccc2[nH]1 (configuration not stated) | 90 nM | 400 nM | 2620 nM | Active | Non-Toxic |  |
| COc1cc(-c2nc3cc(-c4n[nH]c(=S)o4)ccc3[nH]2)ccc1OCc1ccccc1 |  |  |  |  |  | inhibition [6]: Active |
| O=C(Nc1cccc(-c2n[nH]c(=S)o2)c1)c1ccc(OCc2ccccc2)cc1 | 2500 nM |  |  |  |  |  |
| S=c1[nH]nc(-c2ccc3[nH]c(-c4ccc(Oc5ccccc5)cc4)nc3c2)o1 | 30 nM | 2800 nM | 3710 nM | Active | Non-Toxic |  |
| S=c1[nH]nc(-c2ccc3[nH]c(-c4ccc(OCc5ccccc5)cc4)nc3c2)o1 | 30 nM | 700 nM | 1260 nM | Active | Non-Toxic | inhibition [6]: Active |
| Cn1c(-c2ccc(OCc3ccccc3)cc2)nc2cc(-c3n[nH]c(=S)o3)ccc21 | 1060 nM |  |  |  |  |  |
| S=c1[nH]nc(-c2ccc3[nH]c(Cc4ccc(OCc5ccccc5)cc4)nc3c2)o1 | 1600 nM |  |  |  |  |  |
| CC(C)c1ccc2c(c1)c(SC(C)(C)C)c(CC(C)(C)C(=O)O)n2Cc1ccc(Cl)cc1 |  |  |  |  |  | IC50 [7]: 3000 nM |
| O=C(Nc1cc(-c2n[nH]c(=S)o2)ccc1F)c1ccc(OCc2ccccc2)cc1 | 2200 nM |  |  |  |  |  |
